This series can be described thus: recombinant UMI read abundance after kanamycin selection (control-corrected) (log10(CPM+1)); higher = more efficient recombination; extreme values may be limits of the assay; sequences stand for … in AGTGCAGAGAAAATCGGCCAGTTTTCTCTGCCTGCAGTCCGCATGCCGTGGGACCCCTTGGGTTCTAACCTGTTGCCTAGATTTATGCAGCGGACTGCCTTTCTCCCAAAGTGATAAACCGG…AGGTTGGTTTCACT; site = the 11-nt donor. An outline of the steps:
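Sequencing read counts were converted to CPM, averaged over two replicates and scaled by control-derived factors. Results are given as log10(CPM+1). The reads covered the donor–target junction of recombinant UMIs from a pooled Escherichia coli screen of donor and donor-binding-loop pairs for the IS621 bridge recombinase.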
On to “AGGAAGACATGGACCGGTTTTCCCGGTAATCCGTATTTGGA (site AGGAAGACTTA)”, for which the “recombinant UMI read abundance (log10)” value stood at 1.71.
To “AGGAAGACATGGACCGGTTTTCCCGGTAATCCGTATTTGGA (site AGGAAGACTTC)” belongs 2.32; to “AGGAAGACATGGACCGGTTTTCCCGGTAATCCGTATTTGGA (site AGGAAGACTTG)”, 1.04; to “AGGAAGACATGGACCGGTTTTCCCGGTAATCCGTATTTGGA (site AGGAAGACTTT)”, 1.63.
The same measure for “AGGAAGACATGGACCGGTTTTCCCGGTAATCCGTATTTGTG (site AGGAAGACTCA)”: 2.35.
To “AGGAAGACATGGACCGGTTTTCCCGGTAATCCGTATTTGTG (site AGGAAGACTTG)” belongs 0.492; to “AGGAAGCCATGGACCGGTTTTCCCGGTAATCCGTATTTGAA (site AGGAAGACTTG)”, 0.
Turning to “AGGAAGCCATGGACCGGTTTTCCCGGTAATCCGTATTTGAA (site AGGAAGCCTTT)”, the “recombinant UMI read abundance (log10)” value was found to be 0.308.
To “AGGAAGCCATGGACCGGTTTTCCCGGTAATCCGTATTTGCA (site AGGAAGACTTG)” belongs 0; to “AGGAAGCCATGGACCGGTTTTCCCGGTAATCCGTATTTGCA (site AGGAAGCCTTG)”, 0; to “AGGAAGCCATGGACCGGTTTTCCCGGTAATCCGTATTTGCA (site AGGAAGGCTTG)”, 0.
The same measure for “AGGAAGCCATGGACCGGTTTTCCCGGTAATCCGTATTTGCA (site AGGAAGTCTTG)”: 0; for “AGGAAGTCATGGACCGGTTTTCCCGGTAATCCGTATTTGCG (site AGGAAGACTTG)”: 0.
Regarding “AGGAAGTCATGGACCGGTTTTCCCGGTAATCCGTATTTGCG (site AGGAAGTCTCG)”, the “recombinant UMI read abundance (log10)” value is 3.16.
Take “AGGAAGTCATGGACCGGTTTTCCCGGTAATCCGTATTTGTA (site AGGAAGACTTG)”: the “recombinant UMI read abundance (log10)” value came out at 0.
To “AGGAAGTCATGGACCGGTTTTCCCGGTAATCCGTATTTGTA (site AGGAAGTCTTA)” belongs 2.97; to “AGGAATACATGGACCGGTTTTCCCGGTAATCCGTATTTGAC (site AGGAATACTGT)”, 1.74.
Take “AGGAATACATGGACCGGTTTTCCCGGTAATCCGTATTTGAC (site AGGACTACTGT)”: the “recombinant UMI read abundance (log10)” value worked out at 0.624.
On to “AGGAATACATGGACCGGTTTTCCCGGTAATCCGTATTTGAC (site AGGAGTACTGT)”, for which the “recombinant UMI read abundance (log10)” value was determined as 0.
Consider “AGGAATACATGGACCGGTTTTCCCGGTAATCCGTATTTGAC (site AGGATTACTGT)”, for which the “recombinant UMI read abundance (log10)” value was 0.
The same measure for “AGGAATACATGGACCGGTTTTCCCGGTAATCCGTATTTGGC (site AGGAATACTGC)”: 2.59; for “AGGAATCCATGGACCGGTTTTCCCGGTAATCCGTATTTGCT (site AGGAATCCTAG)”: 0.
The same measure for “AGGAATCCATGGACCGGTTTTCCCGGTAATCCGTATTTGCT (site CGGAATCCTAA)”: 0.0057; for “AGGAATCCATGGACCGGTTTTCCCGGTAATCCGTATTTGTT (site AGGAATCCTAA)”: 0.74.
To “AGGAATCCATGGACCGGTTTTCCCGGTAATCCGTATTTGTT (site CGGAATCCTAA)” belongs 0.0029; to “AGGAATCCATGGACCGGTTTTCCCGGTAATCCGTATTTGTT (site GGGAATCCTAA)”, 0.
Consider “AGGAATCCATGGACCGGTTTTCCCGGTAATCCGTATTTGTT (site TGGAATCCTAA)”, for which the “recombinant UMI read abundance (log10)” value stood at 0.
To “AGGACCACATGGACCGGTTTTCCCGGTAATCCGTATTTGAC (site AGGACAACTGT)” belongs 0.0127.
To “AGGACCACATGGACCGGTTTTCCCGGTAATCCGTATTTGAC (site AGGACCACTGT)” belongs 2.79; to “AGGACCACATGGACCGGTTTTCCCGGTAATCCGTATTTGAC (site AGGACGACTGT)”, 0.
The same measure for “AGGACCACATGGACCGGTTTTCCCGGTAATCCGTATTTGAC (site AGGACTACTGT)”: 0.
For the sequence “AGGATCCCATGGACCGGTTTTCCCGGTAATCCGTATTTGTG (site AGGATCCCTCA)”, the “recombinant UMI read abundance (log10)” value was found to be 0.753.
The same measure for “AGGATCCCATGGACCGGTTTTCCCGGTAATCCGTATTTGTG (site AGGCTCCCTCA)”: 0.00372; for “AGGATCCCATGGACCGGTTTTCCCGGTAATCCGTATTTGTG (site AGGGTCCCTCA)”: 0.00264.
To “AGGATCCCATGGACCGGTTTTCCCGGTAATCCGTATTTGTG (site AGGTTCCCTCA)” belongs 0.051; to “AGGATGACATGGACCGGTTTTCCCGGTAATCCGTATTTGCA (site AGGAAGACTTG)”, 2.34; to “AGGATGACATGGACCGGTTTTCCCGGTAATCCGTATTTGCA (site AGGACGACTTG)”, 1.16.
Turning to “AGGATGACATGGACCGGTTTTCCCGGTAATCCGTATTTGCA (site AGGAGGACTTG)”, the “recombinant UMI read abundance (log10)” value came to 1.19.
The same measure for “AGGATGACATGGACCGGTTTTCCCGGTAATCCGTATTTGCA (site AGGATGACTTG)”: 2.76; for “AGGATGCCATGGACCGGTTTTCCCGGTAATCCGTATTTGCT (site AGGATGCCTAG)”: 0.721.
In the case of “AGGATTACATGGACCGGTTTTCCCGGTAATCCGTATTTGAC (site AGGAATACTGT)”, the “recombinant UMI read abundance (log10)” value was found to be 0.
“AGGATTACATGGACCGGTTTTCCCGGTAATCCGTATTTGAC (site AGGACTACTGT)”: the “recombinant UMI read abundance (log10)” value was determined as 0.662.
For “AGGATTACATGGACCGGTTTTCCCGGTAATCCGTATTTGAC (site AGGAGTACTGT)”, the “recombinant UMI read abundance (log10)” value turned out to be 0.
Regarding “AGGATTACATGGACCGGTTTTCCCGGTAATCCGTATTTGAC (site AGGATTACTGT)”, the “recombinant UMI read abundance (log10)” value is 1.4.
Regarding “AGGCAGACATGGACCGGTTTTCCCGGTAATCCGTATTTGGA (site AGGAAGACTTG)”, the “recombinant UMI read abundance (log10)” value was found to be 0.
“AGGCAGACATGGACCGGTTTTCCCGGTAATCCGTATTTGGA (site AGGCAGACTTC)”: the “recombinant UMI read abundance (log10)” value came to 1.21.
The same measure for “AGGCGCGCATGGACCGGTTTTCCCGGTAATCCGTATTTGGA (site AGGCGCGCTTC)”: 0.849.
To “AGGCTGTCATGGACCGGTTTTCCCGGTAATCCGTATTTGTT (site AGGCTGTCTAA)” belongs 1.64.
The same measure for “AGGGACACATGGACCGGTTTTCCCGGTAATCCGTATTTGGC (site AGGGACACTGC)”: 2.93; for “AGGGAGTCATGGACCGGTTTTCCCGGTAATCCGTATTTGCA (site AGGAAGACTTG)”: 0.426; for “AGGGAGTCATGGACCGGTTTTCCCGGTAATCCGTATTTGCA (site AGGGAGTCTTG)”: 2.79.
Consider “AGGGAGTCATGGACCGGTTTTCCCGGTAATCCGTATTTGCC (site AGGGAGTCTGG)”, for which the “recombinant UMI read abundance (log10)” value came out at 2.15.

Source of the values: the supplement of paper PMC11208160.
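Further: IS621 bridge recombinase in Escherichia coli cells against a fixed T5 target plasmid.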
